Key:
[1] = biological target: T1, bacterial TrxR from E. coli (Escherichia coli, UniProt P0A9P4); assay: Inhibition of bacterial TrxR (E. coli), DTNB/5-TNB assay; type: biochemical; settings: purified enzyme, 75 min incubation at 25 °C; means and standard deviations
T1 construct: purchased Sigma-Aldrich
Method: The TrxR (E.coli) inhibition assay was performed according to a previously published procedure. It is partly based on the procedure developed by Lu et al.[35] and detects the formation of 5-TNB (5-thionitrobenzoic acid). Solutions of E. coli TrxR (35.4 U/mL) and of its substrate thioredoxin (Trx) E. coli (156 µg/mL) (both purchased from Sigma-Aldrich and diluted with distilled water) and fresh stock solutions of the test compounds (in DMF) were prepared (1c was administered as suspension). TE buffer (Tris–HCl 50 mM, EDTA 1 mM, pH 7.5) containing graded concentrations of the respective compounds (20 µL) or buffer without compounds (20 µL, as control) were mixed with TrxR solution (10 µL), Trx solution (10 µL), and a solution of NADPH (200 µM) in TE buffer (100 µL) in a well on a 96-well plate. As blank solution, 200 µM NADPH in TE buffer (100 µL) mixed with a DMF/buffer mixture (40 µL) was used (final concentrations of DMF: 0.5% v/v). The solutions on the 96-well plate were incubated for 75 min at 25 °C with moderate shaking. A volume of 100 µL of a reaction mixture (TE buffer containing 200 µM NADPH and 5 mM DTNB) was added to each well to initiate the reaction. After thorough mixing, the formation of 5-TNB was monitored by a microplate reader at 405 nm in 35 s intervals (10 measurements). The values were corrected by subtraction of the values for the blank solution. The increase in concentration of 5-TNB followed a linear trend (r^2 ≥ 0.990) and the enzymatic activities were calculated as the gradients (increase in absorbance per second) thereof. Absence of interference with the assay components was confirmed by a negative control experiment for each test compound. The highest test compound concentration was used and the enzyme solution was replaced by TE buffer for this purpose. The IC50 values were calculated as the concentration of the compound decreasing the enzymatic activity of the positive control by 50% and are presented as the means and standard deviations of independent repeated experiments.

A-549 lung cancer cells = assay: Antiproliferative assay (crystal violet); type: cell-based, human; settings: 72 h exposure; ± standard deviation, n = 2–4; read-out: IC50, antiproliferative effects, A-549
Method: (§1) The antiproliferative effects were determined according to a previously published procedure. A volume of 100 µL of cell suspension of A549 cells, MDA-MB-231, HT-29 or Vero E6 cells was transferred into the wells of a 96-well plates and incubated at 37 °C under 5% CO2 for 72 h. […] The results were calculated as the mean values of three independent experiments, unless stated otherwise.

[2] = test system: HT-29 colon carcinoma cells; assay: Antiproliferative assay (crystal violet); type: cell-based, human; settings: 72 h exposure; ± standard deviation, n = 2–4; read-out: IC50, antiproliferative effects, HT-29
Method: as §1

[3] = test system: MDA-MB-231 breast cancer cells; assay: Antiproliferative assay (crystal violet); type: cell-based, human; settings: 96 h exposure; ± standard deviation, n = 2–4; read-out: IC50, antiproliferative effects, MDA-MB-231
Method: as §1

[4] = test system: Vero E6 non-tumorigenic epithelial kidney cells; assay: Antiproliferative assay (crystal violet); type: cell-based, African green monkey; settings: 72 h exposure; ± standard deviation, n = 2–4; read-out: IC50, antiproliferative effects, Vero E6
Method: as §1

[5] = test system: Acinetobacter baumannii (DSM 30007, ATCC 19606); assay: MIC broth dilution, aerobic bacteria; type: cell-based; settings: 20 h at 37 °C, ± standard error, n ≥ 3
Method: (§2) The following strains were used and maintained at 37 °C in MHB (21 g/L Müller Hinton, pH 7.4) or TSY (30 g/L trypticase soy broth, 3 g/L yeast extract, pH 7.0–7.2) medium. Acinetobacter baumannii (DSM 30007, ATCC 19606) in MHB, Escherichia coli (DSM1116, ATCC 9637) in TSY, Klebsiella pneumoniae (DSM 11678, ATCC33495) in MHB, Pseudomonas aeruginosa PA7 (DSM 24068) in MHB, Enterococcus faecium (DSM 20477, ATCC 19434) in TSY, Staphylococcus aureus MRSA (DSM 11822, ICB 25701) in TSY). Minimum inhibitory concentration (MIC) values were determined following a standardized protocol in broth dilution assays. […] Starting inocula of 2–8 × 10^5 colony-forming units per ml in MHB or TSY media at 37 °C were used, and serial dilutions were carried out in 384-well microtiter plates in duplicate. […] The MIC values for the tested compounds were determined in three independent experiments by a curve-fitting procedure using the GraphPad Prism software (Graphpad Software, Inc.).

[6] = test system: Enterococcus faecium (DSM 20477, ATCC 19434); assay: MIC broth dilution, aerobic bacteria; type: cell-based; settings: 20 h at 37 °C, ± standard error, n ≥ 3
Method: as §2

[7] = test system: Klebsiella pneumoniae (DSM 11678, ATCC33495); assay: MIC broth dilution, aerobic bacteria; type: cell-based; settings: 20 h at 37 °C, ± standard error, n ≥ 3, read-out: MIC, K. pneumoniae
Method: as §2

[8] = test system: Pseudomonas aeruginosa PA7 (DSM 24068); assay: MIC broth dilution, aerobic bacteria; type: cell-based; settings: 20 h at 37 °C, ± standard error, n ≥ 3, read-out: MIC, P.aeruginosa
Method: as §2

[9] = test system: Staphylococcus aureus MRSA (DSM 11822, ICB 25701); assay: MIC broth dilution, aerobic bacteria; type: cell-based; settings: 20 h at 37 °C, ± standard error, n ≥ 3
Method: as §2

[10] = test system: C. difficile strain 1296^ T (DSM 1296), metronidazole-sensitive; assay: Antibacterial effects against C. difficile (anaerobic growth curves, OD600); type: cell-based, Clostridioides difficile; settings: strain 1296T
Method: (§3) (provided by Ulrich Nübel, DSMZ Braunschweig) were maintained in prereduced BHIS medium (37 g/L BHI, oxoid, 5% yeast extract, 1% L-cysteine) in a Coy-Laboratories anaerobic chamber (85% N2, 10% CO2, 5% H2) at 37 °C. Freshly prepared cultures were incubated until the exponential growth phase (OD600 = 0.2–0.4) and were adjusted to 1 × 10^6 cfu/mL before inoculation. The test compounds were dissolved in DMSO and by two-fold dilution steps concentrations in the range from 200 µM to 0.39 µM in BIHS medium were obtained. The solutions (100µL) were added to 100 µL of a diluted C. difficile culture (total volume: 200 µL in BIHS, 5 × 10^5 C. difficile, 100–0.195 µM test compound per well). The OD600-values over a period of 48 h were measured with a LogPhase 600 4-plate reader (BioTek) and compared with blank BHIS.

[11] = test system: C. difficile strain IB136 (NCTC 14385), metronidazole-resistant; assay: as above; type: cell-based, Clostridioides difficile
Method: as §3

[12] = test system: C. difficile strain VPI10463 (ATCC 43255), metronidazole-sensitive; assay: as above; type: cell-based, Clostridioides difficile
Method: as §3

[13] = test system: A-549, HT-29, MDA-MB-231 and Vero E6 cells; assay: Antiproliferative assay, summary over all cell lines; type: cell-based; settings: all four cell lines; for 2c except MDA-MB-231; read-out: IC50 values, antiproliferative effects, all cell lines
Method: as §1

[14] = test system: aerobic Gram-positive and Gram-negative pathogenic bacteria strains; assay: MIC, summary over the panel of aerobic bacteria; type: cell-based
Method: as §2

T1 sequence (P0A9P4 whole entry): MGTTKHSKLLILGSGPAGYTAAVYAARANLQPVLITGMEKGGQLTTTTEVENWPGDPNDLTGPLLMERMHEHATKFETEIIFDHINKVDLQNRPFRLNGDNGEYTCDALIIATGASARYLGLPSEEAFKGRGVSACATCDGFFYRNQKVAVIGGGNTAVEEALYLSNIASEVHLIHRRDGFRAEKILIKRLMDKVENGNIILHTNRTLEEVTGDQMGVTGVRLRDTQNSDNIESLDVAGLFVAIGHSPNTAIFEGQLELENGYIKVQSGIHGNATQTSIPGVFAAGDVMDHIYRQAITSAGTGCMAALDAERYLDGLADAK

Cc1ncc([N+](=O)[O-])n1CCOC(=O)Cn1[c](=[Au][Cl])n(C)c2ccccc21 [Compound 2c, Chlorido-(1-methyl-3-(2-(2-(2-methyl-5-nitroimidazol-1-yl)ethoxy)-2-oxoethyl)-benzimidazol-2-yliden)gold(I)]
IC50 [1]: 0.175 ± 0.017 µM | IC50 (A-549 lung cancer cells): 81.9 ± 2.8 µM | IC50 [2]: 80.7 ± 5.9 µM | IC50 [3]: 31.8 ± 4.1 µM | IC50 [4]: > 95 µM | MIC [5]: > 111.2 µM | MIC, E. faecium [6]: 43.3 ± 16.0 µM | MIC [7]: > 111.2 µM | MIC [8]: > 111.2 µM | MIC, MRSA [9]: 37.1 ± 16.0 µM | antibacterial effect at 6.25 µM ([10]; 6.25 µM, recovery of growth after extended exposure): effective inhibitors | concentration leading to a complete block of bacterial growth without recovery ([10]; up to 100 µM, 48 h): blocked bacterial growth at the same concentration | concentration leading to a complete block of bacterial growth without recovery ([11]; metronidazole-resistant strain IB136, up to 100 µM, 48 h): blocked bacterial growth at the same concentration | antibacterial effect at 6.25 µM ([11]; resistant strain IB136, 6.25 µM): strong effects with recovery of bacterial proliferation | antibacterial effect at 6.25 µM ([12]; strain VPI10463, 6.25 µM, recovery of growth after extended exposure): effective inhibitors | concentration leading to a complete block of bacterial growth without recovery ([12]; strain VPI10463, up to 100 µM, 48 h): blocked bacterial growth at the same concentration | IC50 [13]: > 60 µM | MIC values against Gram-positive strains ([14]; MRSA and E. faecium, except for 1c in MRSA): 37 to 44 µM | activity against Gram-negative strains (in words) ([14]; aerobic conditions): inactive | solubility in organic solvents (Solubility observations): soluble in most organic solvents

— article PMC11343806 (Journal of Biological Inorganic Chemistry, 2024)
